According to the NIST ThermoML archive (doi:10.1021/acs.jced.6b00230):
± gives the expanded uncertainty stated by the source.

How the values were obtained:
[1] = Molar enthalpy of transition or fusion; conditions: Crystal; DSC
[2] = Crystal

Molar enthalpy of transition or fusion [1]: 8.27 ± 0.263 kcal/mol
mass density ([2]; 298.15 K, 101.33 kPa, Buoyancy - hydrostatic balance): 1594.7 ± 2.1 kg/m3
Normal melting temperature ([2]; DTA): 201.56 ± 1.1 °C
SMILES: O=C1NC(=O)c2cc([N+](=O)[O-])ccc21 [4-nitrophthalimide]
